Data on 15 molecules can be found in patent publication US20080200454A1, “CARBON-LINKED TETRAHYDRO-PYRAZOLO-PYRIDINE MODULATORS OF CATHEPSIN S” (priority 2007, published 2008).

SMILES strings stand for the structures.

In the first assay the target is Recombinant human cathepsin S (CatS) (Homo sapiens, UniProt P25774). Description: Recombinant human cathepsin S (CatS) inhibition assay, fluorogenic substrate Z-Valine-Valine-Arginine-AMC.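 Further: Baculovirus-expressed CatS in pH 5.0 sodium acetate buffer with DTT and NaCl, fluorescence read each minute over 20 min, inhibition derived from rate slope.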
Chain of Recombinant human cathepsin S (CatS) (P25774 115-331): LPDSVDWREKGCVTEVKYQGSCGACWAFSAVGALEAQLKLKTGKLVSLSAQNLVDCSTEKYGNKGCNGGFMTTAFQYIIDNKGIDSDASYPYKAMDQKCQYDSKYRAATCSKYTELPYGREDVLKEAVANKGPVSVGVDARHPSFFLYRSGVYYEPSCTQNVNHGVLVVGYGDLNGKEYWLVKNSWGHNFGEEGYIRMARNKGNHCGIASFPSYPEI
Details: not given
As a reminder, the IC50 is the concentration needed to halve the response being measured. With `C[C@H]1COCCN1CCCn1nc(-c2ccc(Cl)c(C#Cc3ccc(Cl)c(CNCCCO)c3)c2)c2c1CCN(C(=O)C(N)=O)C2` [Example 271, (S)-2-{3-(4-Chloro-3-{4-chloro-3-[(3-hydroxy-propylamino)-methyl]-phenylethynyl}-phenyl)-1-[3-(3-methyl-morpholin-4-yl)-propyl]-1,4,6,7-tetrahydro-pyrazolo[4,3-c]pyridin-5-yl}-2-oxo-acetamide], the half-maximal inhibitory concentration (IC50) was found to be 20 nM.
Regarding `C[C@H]1COCCN1CCCn1nc(-c2ccc(Cl)c(C#Cc3ccc(Cl)c(CN(CCO)CCO)c3)c2)c2c1CCN(C(=O)C(N)=O)C2` [Example 272, (S)-2-{3-[3-(3-{[Bis-(2-hydroxy-ethyl)-amino]-methyl}-4-chloro-phenylethynyl)-4-chloro-phenyl]-1-[3-(3-methyl-morpholin-4-yl)-propyl]-1,4,6,7-tetrahydro-pyrazolo[4,3-c]pyridin-5-yl}-2-oxo-acetamide], the half-inhibitory concentration (IC50) was 30 nM.
For `CNCCCNC(=O)c1cc(C#Cc2cc(-c3nn(CCCN4CCOC[C@@H]4C)c4c3CN(C(=O)C(N)=O)CC4)ccc2Cl)ccc1Cl` [Example 273, (S)-5-(5-{5-Aminooxalyl-1-[3-(3-methyl-morpholin-4-yl)-propyl]-4,5,6,7-tetrahydro-1H-pyrazolo[4,3-c]pyridin-3-yl}-2-chloro-phenylethynyl)-2-chloro-N-(3-methylamino-propyl)-benzamide], the IC50 was 40 nM.
The same measure, in the same setting: the result for `C[C@H]1COCCN1CCCn1nc(-c2ccc(Cl)c(C#Cc3ccc(Cl)c(COC4CCNC4)c3)c2)c2c1CCN(C(=O)C(N)=O)C2` (stereo partly drawn) [Example 275, (S)-2-[3-[4-Chloro-3-[4-chloro-3-(pyrrolidin-3-yloxymethyl)-phenylethynyl]-phenyl}-1-[3-(3-methyl-morpholin-4-yl)-propyl]-1,4,6,7-tetrahydro-pyrazolo[4,3-c]pyridin-5-yl}-2-oxo-acetamide] reads 50 nM; that for `C[C@H]1COCCN1CCCn1nc(-c2ccc(Cl)c(C#Cc3ccc4c(c3)CN(C3CC3)CC4)c2)c2c1CCN(S(C)(=O)=O)C2` [Example 277, 7-({2-Chloro-5-[1-{3-[(3S)-3-methylmorpholin-4-yl]propyl}-5-(methylsulfonyl)-4,5,6,7-tetrahydro-1H-pyrazolo[4,3-c]pyridin-3-yl]phenyl}ethynyl)-2-cyclopropyl-1,2,3,4-tetrahydroisoquinoline], 200 nM.
On to `CC(C)N1CCc2ccc(C#Cc3cc(-c4nn(CCCN5CCOC[C@@H]5C)c5c4CN(S(C)(=O)=O)CC5)ccc3Cl)cc2C1` [Example 279, 7-({2-Chloro-5-[1-{3-[(3S)-3-methylmorpholin-4-yl]propyl}-5-(methylsulfonyl)-4,5,6,7-tetrahydro-1H-pyrazolo[4,3-c]pyridin-3-yl]phenyl}ethynyl)-2-(1-methylethyl)-1,2,3,4-tetrahydroisoquinoline], for which the half-maximal inhibitory concentration (IC50) was determined as 110 nM.
Take `CS(=O)(=O)N1CCc2c(c(-c3ccc(Cl)c(C#Cc4ccc5c(c4)CN(C4CC4)CC5)c3)nn2CCCN2CCN(c3ccccc3)CC2)C1` [Example 280, 7-[(2-Chloro-5-{5-(methylsulfonyl)-1-[3-(4-phenylpiperazin-1-yl)propyl]-4,5,6,7-tetrahydro-1H-pyrazolo[4,3-c]pyridin-3-yl}phenyl)ethynyl]-2-cyclopropyl-1,2,3,4-tetrahydroisoquinoline]: the 50% inhibitory concentration (IC50) is 40 nM.
Turning to `C[C@H]1COCCN1CCCn1nc(-c2ccc(Cl)c(C#Cc3ccc4c(c3)CN(C3CC3)CC4)c2)c2c1CCN(C(N)=O)C2` [Example 282, 3-{4-Chloro-3-[(2-cyclopropyl-1,2,3,4-tetrahydroisoquinolin-7-yl)ethynyl]phenyl}-1-{3-[(3S)-3-methylmorpholin-4-yl]propyl}-1,4,6,7-tetrahydro-5H-pyrazolo[4,3-c]pyridine-5-carboxamide], the IC50 was 150 nM.
For the molecule `C[C@H]1COCCN1CCCn1nc(-c2ccc(Cl)c(C#Cc3ccc(Cl)c(CNCc4ccccc4)c3)c2)c2c1CCN(C(=O)C(N)=O)C2` [Example 285, 2-(3-{4-Chloro-3-[(4-chloro-3-{[(phenylmethyl)amino]methyl}phenyl)ethynyl]phenyl}-1-{3-[(3S)-3-methylmorpholin-4-yl]propyl}-1,4,6,7-tetrahydro-5H-pyrazolo[4,3-c]pyridin-5-yl)-2-oxoacetamide], the 50% inhibitory concentration (IC50) came to 20 nM.

The assay is the same for the next values; noted with them: CatS IC50.
`C[C@H]1COCCN1CCCn1nc(-c2ccc(Cl)c(C#Cc3ccc(Cl)c(COCCCO)c3)c2)c2c1CCN(C(=O)C(N)=O)C2` [Example 274, (S)-2-{3-{4-Chloro-3-[4-chloro-3-(3-hydroxy-propoxymethyl)-phenylethynyl]-phenyl}-1-[3-(3-methyl-morpholin-4-yl)-propyl]-1,4,6,7-tetrahydro-pyrazolo[4,3-c]pyridin-5-yl}-2-oxo-acetamide]: the IC50 stood at 40 nM.
For `CS(=O)(=O)N1CCc2c(c(-c3ccc(Cl)c(C#Cc4ccc5c(c4)CN(C4CC4)CC5)c3)nn2CCCN2CCN(C3CC3)CC2)C1` [Example 276, 7-[(2-Chloro-5-{1-[3-(4-cyclopropylpiperazin-1-yl)propyl]-5-(methylsulfonyl)-4,5,6,7-tetrahydro-1H-pyrazolo[4,3-c]pyridin-3-yl}phenyl)ethynyl]-2-cyclopropyl-1,2,3,4-tetrahydroisoquinoline], the half-inhibitory concentration (IC50) worked out at 180 nM.
The same measure, in the same setting: the same measure for `C[C@H]1COCCN1CCCn1nc(-c2ccc(Cl)c(C#Cc3ccc4c(c3)CNCC4)c2)c2c1CCN(S(C)(=O)=O)C2` [Example 278, 7-({2-Chloro-5-[1-{3-[(3S)-3-methylmorpholin-4-yl]propyl}-5-(methylsulfonyl)-4,5,6,7-tetrahydro-1H-pyrazolo[4,3-c]pyridin-3-yl]phenyl}ethynyl)-1,2,3,4-tetrahydroisoquinoline]: 110 nM; for `C[C@H]1COCCN1CCCn1nc(-c2ccc(Cl)c(C#Cc3ccc4c(c3)CN(C)CC4)c2)c2c1CCN(S(C)(=O)=O)C2` [Example 281, 7-({2-Chloro-5-[1-{3-[(3S)-3-methylmorpholin-4-yl]propyl}-5-(methylsulfonyl)-4,5,6,7-tetrahydro-1H-pyrazolo[4,3-c]pyridin-3-yl]phenyl}ethynyl)-2-methyl-1,2,3,4-tetrahydroisoquinoline]: 120 nM; for `C[C@H]1COCCN1CCCn1nc(-c2ccc(Cl)c(C#Cc3ccc4c(c3)CN(C3CC3)CC4)c2)c2c1CCN(C(=O)C(N)=O)C2` [Example 283, 2-(3-{4-Chloro-3-[(2-cyclopropyl-1,2,3,4-tetrahydroisoquinolin-7-yl)ethynyl]phenyl}-1-{3-[(3S)-3-methylmorpholin-4-yl]propyl}-1,4,6,7-tetrahydro-5H-pyrazolo[4,3-c]pyridin-5-yl)-2-oxoacetamide]: 100 nM.
Turning to `CS(=O)(=O)N1CCc2c(c(-c3ccc(Cl)c(C#Cc4ccc5c(c4)CCN(C4CC4)C5)c3)nn2CCCN2CCOCC2)C1` [Example 284, 6-({2-Chloro-5-[5-(methylsulfonyl)-1-(3-morpholin-4-ylpropyl)-4,5,6,7-tetrahydro-1H-pyrazolo[4,3-c]pyridin-3-yl]phenyl}ethynyl)-2-cyclopropyl-1,2,3,4-tetrahydroisoquinoline], the 50% inhibitory concentration (IC50) was 200 nM.
